Experimental findings from patent US20130096160A1, “ARYLTHIAZOLYL PIPERIDINES AND RELATED COMPOUNDS AS MODULATORS OF SURVIVAL MOTOR NEURON (SMN) PROTEIN PRODUCTION” (Secretary, Department of Health and Human Services, priority 2010, published 2013) are described below.

The assay concerns SMN2-luciferase reporter. The experiment in a line: SMN2-luciferase reporter qHTS assay. Conditions: for Curve Class: agonist/antagonist character of the concentration-response, lower values = more significant concentration-response; for Increased SMN2 activity: percent increase (or decrease) in SMN2 levels compared to control in which no test compound is added. The class given is cell-based, human. On the set-up: key to Curve Class: A curve class of 1.1 is a full agonist/antagonist; a curve class of 4 indicates the compound is inactive. From the text:
A cell-based quantitative high throughput screening (qHTS) assay is used to identify compounds able to increase SMN production. The assay uses a SMN2-luciferase reporter to determine if exon 7 of the SMN gene is expressed, which correlates with increased full-length SMN production from the SMN2 gene. As controls, a homologue SMN1-luciferase reporter cell line looks for variations in expression of the SMN1 gene and a cell line with just the luciferase reporter looks at the capacity of the compounds to inhibit luciferase. In addition, increments in SMN production by lead compounds were confirmed by Western-Blot analysis using SMA patient fibroblasts.
For the qHTS assay, concentration-response profiles are generated at the primary-screen level for each library compound to minimize the number of false positives. A dilution series consisting of seven points separated by five-fold concentration differences is prepared for each compound, yielding a concentration series that spans a range of about four orders of magnitude, for example from a high concentration of 50 micromolar to a low concentration of 3.2 nanomolar and providing adequate data for fitting to a Hill equation. For the assay, the SMN2 reporter cell line was plated at a density of ˜2000 cells/well in complete media (phenol red free DMEM, 10% detacl calf serum, and 1× pen/strep), in 1536 well white solid bottom tissue culture treated plates (Greiner). Cells were allowed to adhere and recover at 37 C in 5% CO2 for 10-12 hours. Compounds were added to the plates by a Pintool (Kalypsys) at a volume of 23 nl/well. Cells were incubated in the presence of compounds for 2 days at 37 C in 5% CO2. In order to quantify luciferase reporter levels, 3 ul/well of OneGlo (Promega) was added to each well and incubated at room temperature for 10 minutes. Luminescence from the reporter in each well is measured using a Viewlux CCD based imager (Perkin Elmer) with an integration time of 30 seconds and a binning of 2× in luminescence mode. Sodium butyrate was used as the positive control compound for luciferase induction and a column of 32 wells of 9.2 mM compound on each plate was used to monitor assay performance.
The SMN reporters used herein are modified from those previously described (M. L. Zhang, C. L. Lorson, E. J. Androphy and J. Zhou, An in vivo reporter system for measuring increased inclusion of exon 7 in SMN2 mRNA: potential therapy of SMA, Gene Ther 8 (2001), pp. 1532-1538.)
The sequence of the SMN1 reporter vector used herein is given in SEQ ID NO.:1, while that of the SMN2 reporter vector is given in SEQ ID NO.:2.
Each of the SMN reporters is constructed from three separate DNA fragments: (1) an SMN promotor sequence from the transcriptional reporter p 4.0T (SMN1) or p3.4C (SMN2) described in Monani, et al. Biochimica et Biophysica Acta 1445 (1999) 330-336; (2) a modification of the firefly luciferase splicing reporter for SMN1 or SMN2 described by Zhang et al; and (3) a 744 bp SMN cDNA fragment.
The 3.7 kB SMN1 promoter fragment is obtained by restriction of p4.0T with BglII and SacII. A 3.4 kB SMN2 promoter fragment is obtained by restriction of p3.4C with KpnI and SacII; a 300 bp BglII/KpnI fragment from p4.0T is then added to the 3.4 kB SMN2 promoter fragment to yield the final 3.7 kB SMN2 promoter fragment.
The modified SMN1 and SMN2 firefly luciferase splicing reporters are obtained by removing 4 kB of intron 6 in the original reporter system by restriction with SmaI/Swa followed by religation of the reporter. A 4 kB luciferase splicing reporter is then obtaind by digestion with XhoI and NotI.
Ths SMN cDNA fragment is obtained by generating the productof a polymerase chain reaction (PCR) on a cDNA preparation using […] (SEQ ID NO:3) as the forward primer and Tatctcgagtggtccagaaggaaatggaggcagcc (SEQ ID NO:4) as the reverse primer. The PCR product is then digested with XhoI and SacII. […]
(In general: Reporter assays use an easily measured gene product as a stand-in for the process of interest.)

Regarding `CN(C)c1cccc(-c2nccc(N3CCC(C(N)=O)CC3)n2)c1` [Example 104, 1-(2-(3-(Dimethylamino)Phenyl)Pyrimidin-4-yl)Piperidine-4-Carboxamide], the “Curve Class” value is reported as 2.1 and the “Increased SMN2 activity” value came out at 306.3%.
Regarding `CC(C)COc1ccc(-c2csc(N3CCC(C(N)=O)CC3)n2)cc1` [Example 106, 1-(4-(4-Isobutoxyphenyl)Thiazol-2-yl)Piperidine-4-Carboxamide], the “Curve Class” value amounted to 1.2 and the “Increased SMN2 activity” value is 54%.
For the compound `CC(C)Oc1cccc(-c2csc(N3CCC(C(N)=O)CC3)n2)c1` [Example 107, 1-(4(3-Isopropoxyphenyl)Thiazol-2-yl)Piperidine-4-Carboxamide], the “Curve Class” value is 1.1 and the “Increased SMN2 activity” value came to 605.6%.
In the same order, the values of `Brc1ccc(-c2csc(N3CCNCC3)n2)cc1` [Example 108, 4-(4-Bromophenyl)-2-(Piperazin-1-yl)Thiazole] are −2.1 and −97.29%.
As to `CC(=O)N1CCN(c2nc(-c3ccc(Br)cc3)cs2)CC1` [Example 110, 1-(4-(4-(4-Bromophenyl)Thiazol-2-yl)Piperazin-1-yl)Ethanone], the “Curve Class” value is 1.1 and the “Increased SMN2 activity” value is on record as 234.5%.
Turning to `NC1CCN(c2nc(-c3ccc(Br)cc3)cs2)CC1` [Example 111, 1-(4-(4-Bromophenyl)Thiazol-2-yl)Piperidin-4-Amine], the “Curve Class” value is listed as 1.1 and the “Increased SMN2 activity” value is on record as 182.6%.
Take `Brc1ccc(-c2csc(N3CCC(c4nnn[nH]4)CC3)n2)cc1` [Example 112, 2-(4-(1H-Tetrazol-5-yl)Piperidin-1-yl)-4-(4-Bromophenyl)Thiazole]: the “Curve Class” value is given as 2.1 and the “Increased SMN2 activity” value came to 66.77%.
For the compound `CC(=O)NC1CCN(c2nc(-c3ccc(Br)cc3)cs2)CC1` [Example 113, N-(1-(4-(4-Bromophenyl)Thiazol-2-yl)Piperidin-4-yl)Acetamide], the “Curve Class” value is −1.4 and the “Increased SMN2 activity” value was −56.62%.
In the case of `NC(=O)N1CCN(c2nc(-c3ccc(Br)cc3)cs2)CC1` [Example 118, 4-(4-(4-Bromophenyl)Thiazol-2-yl)Piperazine-1-Carboxamide], the “Curve Class” value is 2.1 and the “Increased SMN2 activity” value is on record as 88.79%.
As for `NC(=O)C1CCN(c2ncc(-c3ccc4c(c3)OCCO4)s2)CC1` [Example 120, 1-(5-(2,3-Dihydrobenzo[B][1,4]Dioxin-6-yl)Thiazol-2-yl)Piperidine-4-Carboxamide], the “Curve Class” value is on record as 1.1 and the “Increased SMN2 activity” value is 424.6%.
For `NC(=O)C1CCN(c2ncc(-c3cccc(F)c3)s2)CC1` [Example 121, 1-(5-(3-Fluorophenyl)Thiazol-2-yl)Piperidine-4-Carboxamide], the “Curve Class” value is 1.1 and the “Increased SMN2 activity” value came to 601.5%.
For the compound `NC(=O)C1CCN(c2ncc(-c3ccc(Cl)cc3)s2)CC1` [Example 122, 1-(5-(4-Chlorophenyl)Thiazol-2-yl)Piperidine-4-Carboxamide], the “Curve Class” value was determined as 1.1 and the “Increased SMN2 activity” value was 498.3%.
As to `NC(=O)C1CCN(c2ncc(-c3ccc4c(c3)OCO4)s2)CC1` [Example 125, 1-(5-(Benzo[D][1,3]Dioxol-5-yl)Thiazol-2-yl)Piperidine-4-Carboxamide], the “Curve Class” value was determined as 1.1 and the “Increased SMN2 activity” value came out at 589.875%.
Consider `Cc1ccc(-c2ccnc(N3CCC(C(N)=O)CC3)n2)cc1` [Example 126, 1-(4-P-Tolylpyrimidin-2-yl)Piperidine-4-Carboxamide], for which the “Curve Class” value came to 1.1 and the “Increased SMN2 activity” value is listed as 444.6%.
Turning to `CC(C)Oc1cccc(-c2ccnc(N3CCC(C(N)=O)CC3)n2)c1` [Example 127, 1-(4-(3-Isopropoxyphenyl)Pyrimidin-2-yl)Piperidine-4-Carboxamide], the “Curve Class” value amounted to 1.1 and the “Increased SMN2 activity” value came to 298.225%.
As to `NC(=O)C1CCN(c2nccc(-c3ccc4c(c3)OCCCO4)n2)CC1` [Example 128, 1-(4-(3,4-Dihydro-2H-Benzo[B][1,4]Dioxepin-7-yl)Pyrimidin-2-yl)Piperidine-4-Carboxamide], the “Curve Class” value is reported as 1.1 and the “Increased SMN2 activity” value stood at 234.2%.
For `NC(=O)C1CCN(c2nccc(-c3ccc4c(c3)OCCO4)n2)CC1` [Example 129, 1-(4-(2,3-Dihydrobenzo[B][1,4]Dioxin-6-yl)Pyrimidin-2-yl)Piperidine-4-Carboxamide], the “Curve Class” value came out at 1.1 and the “Increased SMN2 activity” value turned out to be 364.3%.
With `NC(=O)C1CCN(c2nnc(-c3ccc4c(c3)OCCCO4)s2)CC1` [Example 130, 1-(5-(3,4-Dihydro-2H-Benzo[B][1,4]Dioxepin-7-yl)-1,3,4-Thiadiazol-2-yl)Piperidine-4-Carboxamide], the “Curve Class” value turned out to be 1.1 and the “Increased SMN2 activity” value came to 257.1%.
In the same order, the values of `CN(C)c1cccc(-c2nnc(N3CCC(C(N)=O)CC3)s2)c1` [Example 132, 1-(5-(3-(Dimethylamino)Phenyl)-1,3,4-Thiadiazol-2-yl)Piperidine-4-Carboxamide] are 1.1 and 448.5%.
Turning to `Cc1ccc(-c2nnc(N3CCC(C(N)=O)CC3)s2)cc1` [Example 133, 1-(5-P-Tolyl-1,3,4-Thiadiazol-2-yl)Piperidine-4-Carboxamide], the “Curve Class” value came out at 1.2 and the “Increased SMN2 activity” value came out at 54%.
As to `c1c[nH]c(C2CCN(c3ncc(-c4ccc5c(c4)OCCCO5)s3)CC2)n1` [Example 135, 2-(4-(1H-Imidazol-2-yl)Piperidin-1-yl)-5-(3,4-Dihydro-2H-Benzo[B][1,4] Dioxepin-7-yl)Thiazole], the “Curve Class” value amounted to 1.1 and the “Increased SMN2 activity” value is listed as 129.4%.
As for `CN(C)c1cccc(-c2cnc(N3CCC(c4ncc[nH]4)CC3)s2)c1` [Example 136, 3-(2-(4-(1H-Imidazol-2-yl)Piperidin-1-yl)Thiazol-5-yl)-N,N-Dimethylaniline], the “Curve Class” value is recorded as 1.1 and the “Increased SMN2 activity” value stood at 188.2%.
Consider `NC(=O)C1CCN(c2ncc(-c3cccc(N4CCCC4)c3)s2)CC1` [Example 137, 1-(5-(3-(Pyrrolidin-1-yl)Phenyl)Thiazol-2-yl)Piperidine-4-Carboxamide], for which the “Curve Class” value is on record as 1.1 and the “Increased SMN2 activity” value was found to be 685.1%.
With `NC(=O)C1CCN(c2ncc(-c3cccc(N4CCCCC4)c3)s2)CC1` [Example 138, 1-(5-(3-(Piperidin-1-yl)Phenyl)Thiazol-2-yl)Piperidine-4-Carboxamide], the “Curve Class” value is given as 1.1 and the “Increased SMN2 activity” value is 565.6%.
In the case of `NC(=O)C1CCN(c2ncc(-c3cccc(N4CCOCC4)c3)s2)CC1` [Example 139, 1-(5-(3-Morpholinophenyl)Thiazol-2-yl)Piperidine-4-Carboxamide], the “Curve Class” value is listed as 1.1 and the “Increased SMN2 activity” value is 275.2%.
For `CC(=O)C1CCN(c2ncc(-c3cccc(N(C)C)c3)s2)CC1` [Example 141, 1-(1-(5-(3-(Dimethylamino)Phenyl)Thiazol-2-yl)Piperidin-4-yl)Ethanone], the “Curve Class” value was 1.1 and the “Increased SMN2 activity” value is listed as 224.6%.
